From US9738652B2, “Spiro urea compounds as RSV antiviral compounds” (priority 2014, dated 2017)

Legend:
[1] = system: rgRSV224 virus; assay: Antiviral activity: rgRSV224 (GFP) replication in HeLa cells; settings: human respiratory syncytial virus, 72 h, read-out: RSV HELA pEC50 (converted)
Description: Black 384-well clear-bottom microtiter plates (Corning, Amsterdam, The Netherlands) were filled via acoustic drop ejection using the echo liquid handler (Labcyte, Sunnyvale, Calif.). 200 nL of compound stock solutions (100% DMSO) were transferred to the assay plates. 9 serial 4-fold dilutions of compound were made, creating per quadrant the same compound concentration. The assay was initiated by adding 10 μL of culture medium to each well (RPMI medium without phenol red, 10% FBS-heat inactivated, 0.04% gentamycin (50 mg/mL). All addition steps are done by using a multidrop dispenser (Thermo Scientific, Erembodegem, Belgium). Next, rgRSV224 virus (MOI=1) diluted in culture medium was added to the plates. rgRSV224 virus is an engineered virus that includes an additional GFP gene (Hallak L K, Spillmann D, Collins P L, Peeples M E. Glycosaminoglycan sulfation requirements for respiratory syncytial virus infection; Journal of virology (2000), 74(22), 10508-13) and was in-licensed from the NIH (Bethesda, Md., USA). Finally, 20 μL of a HeLa cell suspension (3,000 cells/well) were plated. Medium, virus- and mock-infected controls were included in each test. The wells contain 0.05% DMSO per volume. Cells were incubated at 37° C. in a 5% CO2 atmosphere. Three days post-virus exposure, viral replication was quantified by measuring GFP expression in the cells by an in house developed MSM laser microscope (Tibotec, Beerse, Belgium). The EC50 was defined as the 50% inhibitory concentration for GFP expression. In parallel, compounds were incubated for three days in a set of white 384-well microtiter plates (Corning) and the cytotoxicity of compounds in HeLa cells was determined by measuring the ATP content of the cells using the ATPlite kit (Perkin Elmer, Zaventem, Belgium) according to the manufacturer's instructions. The CC50 was defined as the 50% concentration for cytotoxicity.

[2] = Cytotoxicity in HeLa cells (ATPlite, CC50) used for selectivity index; settings: human
Description: The wells contain 0.05% DMSO per volume. Cells were incubated at 37° C. in a 5% CO2 atmosphere. […] In parallel, compounds were incubated for three days in a set of white 384-well microtiter plates (Corning) and the cytotoxicity of compounds in HeLa cells was determined by measuring the ATP content of the cells using the ATPlite kit (Perkin Elmer, Zaventem, Belgium) according to the manufacturer's instructions. The CC50 was defined as the 50% concentration for cytotoxicity.

SMILES | EC50 [1] | selectivity ratio at 3 days [2]
N#CCCCn1c(CN2C(=O)C3(CN(C(=O)N[C@H]4C[C@H](O)C4)C3)c3ccccc32)cc2cc(Cl)ccc21 [Co. No. 9, 1′-[[5-chloro-1-(3-cyanopropyl)indol-2-yl]methyl]-N-(trans-3-hydroxycyclobutyl)-2′-oxo-spiro[azetidine-3,3′-indoline]-1-carboxamide] | < 0.153 nM | > 254000
CC(C)NC(=O)N1CCC2(CC1)C(=O)N(Cc1cc3cc(Cl)ccc3n1CCCC#N)c1cnccc12 [Co. No. 28, 1′-[[5-chloro-1-(3-cyanopropyl)indol-2-yl]methyl]-N-isopropyl-2′-oxo-spiro[piperidine-4,3′-pyrrolo[2,3-c]pyridine]-1-carboxamide] | 2.14 nM | 25400
O=C(NC1CC(O)C1)N1CC2(C1)C(=O)N(Cc1nc3nc(Cl)ccc3n1CCCC(F)(F)F)c1ccccc12 (stereo not shown) [Co. No. 24, 1′[[5-chloro-1-(4,4,4-trifluorobutyl)imidazo[4,5-b]pyridin-2-yl]methyl]-N-(3-hydroxycyclobutyl)-2′-oxo-spiro[azetidine-3,3′-indoline]-1-carboxamide] | 1.32 nM | > 75400
CC(C)NC(=O)N1CC2(C1)C(=O)N(Cc1nc3cc(Cl)ccc3n1CCCC#N)c1ccccc12 [Co. No. 19, 1′-[[5-chloro-1-(3-cyanopropyl)benzimidazol-2-yl]methyl]-N-isopropyl-2′-oxo-spiro[azetidine-3,3′-indoline]-1-carboxamide] | 0.0912 nM | > 1.11e+06
CS(=O)(=O)CCCn1c(CN2C(=O)C3(CN(C(=O)N[C@H]4C[C@H](O)C4)C3)c3ccccc32)cc2cc(Cl)ccc21 [Co. No. 11, 1′-[[5-chloro-1-(3-methylsulfonylpropyl)indol-2-yl]methyl]-N-(trans-3-hydroxycyclobutyl)-2′-oxo-spiro[azetidine-3,3′-indoline]-1-carboxamide] | 0.245 nM | 300000
CS(=O)(=O)CCCn1c(CN2C(=O)C3(CN(C(=O)N[C@H]4C[C@@H](O)C4)C3)c3ccccc32)cc2cc(Cl)ccc21 [Co. No. 10, 1′-[[5-chloro-1-(3-methylsulfonylpropyl)indol-2-yl]methyl]-N-(cis-3-hydroxycyclobutyl)-2′-oxo-spiro[azetidine-3,3′-indoline]-1-carboxamide] | < 0.17 nM | > 505000
CC(C)NC(=O)N1CCC2(CC1)C(=O)N(Cc1cc3cc(Cl)ccc3n1CCCS(C)(=O)=O)c1cnccc12 [Co. No. 27, 1′-[[5-chloro-1-(3-methylsulfonylpropyl)indol-2-yl]methyl]-N-isopropyl-2′-oxo-spiro[piperidine-4,3′-pyrrolo[2,3-c]pyridine]-1-carboxamide] | 0.257 nM | 300000
N#CCCCn1c(CN2C(=O)C3(CN(C(=O)NC4CCNCC4)C3)c3ccccc32)cc2cc(Cl)ccc21 [Co. No. 3, 1′-[[5-chloro-1-(3-cyanopropyl)indol-2-yl]methyl]-2′-oxo-N-(4-piperidyl)spiro[azetidine-3,3′-indoline]-1-carboxamide] | 0.631 nM | 158000
O=C(NC1CC(O)C1)N1CC2(C1)C(=O)N(Cc1nc3nc(Cl)ccc3n1CCCCF)c1ccccc12 (stereo not shown) [Co. No. 21, 1′-[[5-chloro-1-(4-fluorobutyl)imidazo[4,5-b]pyridin-2-yl]methyl]-N-(3-hydroxycyclobutyl)-2′-oxo-spiro[azetidine-3,3′-indoline]-1-carboxamide] | 1.41 nM | > 71400
CS(=O)(=O)CCCn1c(CN2C(=O)C3(CN(C(=O)NCCN4CCOCC4)C3)c3ccccc32)cc2cc(Cl)ccc21 [Co. No. 16, 1′-[[5-chloro-1-(3-methylsulfonylpropyl)indol-2-yl]methyl]-N-(2-morpholinoethyl)-2′-oxo-spiro[azetidine-3,3′-indoline]-1-carboxamide] | 0.339 nM | 159000
CC(C)NC(=O)N1CCC2(CC1)C(=O)N(Cc1nc3cc(Cl)ccc3n1CCCC#N)c1cnccc12 [Co. No. 29, 1′-[[5-chloro-1-(3-cyanopropyl)benzimidazol-2-yl]methyl]-N-isopropyl-2′-oxo-spiro[piperidine-4,3′-pyrrolo[2,3-c]pyridine]-1-carboxamide] | 0.0245 nM | > 4.11e+06
CN(C)CCNC(=O)N1CC2(C1)C(=O)N(Cc1cc3cc(Cl)ccc3n1CCCS(C)(=O)=O)c1ccccc12 [Co. No. 17, 1′-[[5-chloro-1-(3-methylsulfonylpropyl)indol-2-yl]methyl]-N-[2-(dimethylamino)ethyl]-2′-oxo-spiro[azetidine-3,3′-indoline]-1-carboxamide] | 1.26 nM | 39300
CC(C)NC(=O)N1CC2(C1)C(=O)N(Cc1nc3nc(Cl)ccc3n1CCCCF)c1ccccc12 [Co. No. 20, 1′-[[5-chloro-1-(4-fluorobutyl)imidazo[4,5-b]pyridin-2-yl]methyl]-N-isopropyl-2′-oxo-spiro[azetidine-3,3′-indoline]-1-carboxamide] | 1.26 nM | > 80200
N#CCCCn1c(CN2C(=O)C3(CN(C(=O)NC4CCN(CC(F)(F)F)CC4)C3)c3ccccc32)cc2cc(Cl)ccc21 [Co. No. 4, 1′-[[5-chloro-1-(3-cyanopropyl)indol-2-yl]methyl]-2′-oxo-N-[1-(2,2,2-trifluoroethyl)-4-piperidyl]spiro[azetidine-3,3′-indoline]-1-carboxamide] | 1 nM | 100000
CC(CO)NC(=O)N1CC2(C1)C(=O)N(Cc1cc3cc(Cl)ccc3n1CCCS(C)(=O)=O)c1ccccc12 (stereo not shown) [Co. No. 14, 1′-[[5-chloro-1-(3-methylsulfonylpropyl)indol-2-yl]methyl]-N-(2-hydroxy-1-methyl-ethyl)-2′-oxo-spiro[azetidine-3,3′-indoline]-1-carboxamide] | 0.575 nM | 98200
CC(C)(CO)NC(=O)N1CC2(C1)C(=O)N(Cc1cc3cc(Cl)ccc3n1CCCS(C)(=O)=O)c1ccccc12 [Co. No. 13, 1′-[[5-chloro-1-(3-methylsulfonylpropyl)indol-2-yl]methyl]-N-(2-hydroxy-1,1-dimethyl-ethyl)-2′-oxo-spiro[azetidine-3,3′-indoline]-1-carboxamide] | 1 nM | 43400
N#CCCCn1c(CN2C(=O)C3(CN(C(=O)NC4CCOCC4)C3)c3ccccc32)cc2cc(Cl)ccc21 [Co. No. 6, 1′-[[5-chloro-1-(3-cyanopropyl)indol-2-yl]methyl]-2′-oxo-N-tetrahydropyran-4-yl-spiro[azetidine-3,3′-indoline]-1-carboxamide] | 0.316 nM | 100000
CN(C)CCN(C)C(=O)N1CC2(C1)C(=O)N(Cc1cc3cc(Cl)ccc3n1CCCS(C)(=O)=O)c1ccccc12 [Co. No. 15, 1′-[[5-chloro-1-(3-methylsulfonylpropyl)indol-2-yl]methyl]-N-[2-(dimethylamino)ethyl]-N-methyl-2′-oxo-spiro[azetidine-3,3′-indoline]-1-carboxamide] | 7.59 nM | 2570
CS(=O)(=O)CCCn1c(CN2C(=O)C3(CN(C(=O)NCC(F)(F)F)C3)c3ccccc32)cc2cc(Cl)ccc21 [Co. No. 12, 1′-[[5-chloro-1-(3-methylsulfonylpropyl)indol-2-yl]methyl]-2′-oxo-N-(2,2,2-trifluoroethyl)spiro[azetidine-3,3′-indoline]-1-carboxamide] | 0.269 nM | 86900
CC(C)(C)OC(=O)N1CCC(NC(=O)N2CC3(C2)C(=O)N(Cc2cc4cc(Cl)ccc4n2CCCC#N)c2ccccc23)CC1 [Co. No. 2, tert-butyl 4-[[1′-[[5-chloro-1-(3-cyanopropyl)indol-2-yl]methyl]-2′-oxo-spiro[azetidine-3,3′-indoline]-1-carbonyl]amino]piperidine-1-carboxylate] | 2 nM | > 50000
CNC(=O)N1CCC2(CC1)C(=O)N(Cc1cc3cc(Cl)ccc3n1CCCC#N)c1cnccc12 [Co. No. 25, 1′-[[5-chloro-1-(3-cyanopropyl)indol-2-yl]methyl]-N-methyl-2′-oxo-spiro[piperidine-4,3′-pyrrolo[2,3-c]pyridine]-1-carboxamide] | 0.178 nM | > 565000
N#CCCCn1c(CN2C(=O)C3(CN(C(=O)N[C@H]4C[C@@H](O)C4)C3)c3ccccc32)cc2cc(Cl)ccc21 [Co. No. 8, 1′-[[5-chloro-1-(3-cyanopropyl)indol-2-yl]methyl]-N-(cis-3-hydroxycyclobutyl)-2′-oxo-spiro[azetidine-3,3′-indoline]-1-carboxamide] | < 0.153 nM | > 232000
CN1CCC(NC(=O)N2CC3(C2)C(=O)N(Cc2cc4cc(Cl)ccc4n2CCCC#N)c2ccccc23)CC1 [Co. No. 5, 1′-[[5-chloro-1-(3-cyanopropyl)indol-2-yl]methyl]-N-(1-methyl-4-piperidyl)-2′-oxo-spiro[azetidine-3,3′-indoline]-1-carboxamide] | 3.16 nM | 10000
CC(C)NC(=O)N1CC2(C1)C(=O)N(Cc1cc3cc(Cl)ccc3n1CCCS(C)(=O)=O)c1ccccc12 [Co. No. 1, 1′-[[5-chloro-1-(3-methylsulfonylpropyl)indol-2-yl]methyl]-N-isopropyl-2′-oxo-spiro[azetidine-3,3′-indoline]-1-carboxamide] | 0.0891 nM | 357000
CC(C)NC(=O)N1CC2(C1)C(=O)N(Cc1nc3cc(Cl)ccc3n1CCCS(C)(=O)=O)c1ccccc12 [Co. No. 18, 1′-[[5-chloro-1-(3-methylsulfonylpropyl)benzimidazol-2-yl]methyl]-N-isopropyl-2′-oxo-spiro[azetidine-3,3′-indoline]-1-carboxamide] | 0.0204 nM | > 4.93e+06
O=C(NC1CCOCC1)N1CC2(C1)C(=O)N(Cc1nc3nc(Cl)ccc3n1CCCC(F)(F)F)c1ccccc12 [Co. No. 23, 1′-[[5-chloro-1-(4,4,4-trifluorobutyl)imidazo[4,5-b]pyridin-2-yl]methyl]-2′-oxo-N-tetrahydropyran-4-yl-spiro[azetidine-3,3′-indoline]-1-carboxamide] | 1.62 nM | > 61800
